Assay results reported in US20050239873A1 (priority 1999, published 2005).

How the values were obtained:
[1] = test system: TAMH cells over-expressing Bcl-xL A142L; assay: Cytotoxicity (Alamar Blue) in Bcl-xL transfectants; type: cell-based, murine
Procedure: (§1) TAMH cells were transfected with DNA encoding each of the mutant BCl-xL proteins by lipofection (See Example 1 for method). For analysis of BCl-xL expression, 20 μg of cell protein was separated by 20% SDS-PAGE and transferred to nitrocellulose membranes. Immunodetection of BCl-xL was carried out using rabbit anti-Bcl-xL antibody and Protein A/horseradish peroxidase conjugate, followed by chemiluminescent detection. Cells were grown to about 80% confluence in 96-well plates followed by addition of 100 μl of 2X AA1 or staurosporine (STS) solution in complete medium. STS is a natural product originally isolated from the bacterium Streptomyces and found to be capable of inducing apoptosis in certain cells and which induction of apoptosis could be blocked by the expression of a Bcl-2 family protein. Cell viability was determined spectrophotometrically after 24 h treatment as the ratio of reduced and oxidized Alamar Blue (BIOSOURCE) at 570 nm and 600 nm, respectively. All results were normalized against DMSO controls. LD50 values were calculated by non-linear regression analysis using Prism software (Graphpad).

[2] = test system: TAMH cells over-expressing Bcl-xL E92L; assay: Cytotoxicity (Alamar Blue) in Bcl-xL transfectants; type: cell-based, murine; settings: 24 h
Procedure: as §1

[3] = test system: TAMH cells over-expressing Bcl-xL F146L; assay: Cytotoxicity (Alamar Blue) in Bcl-xL transfectants; type: cell-based, murine
Procedure: as §1

[4] = test system: TAMH cells over-expressing Bcl-xL F97W; assay: Cytotoxicity (Alamar Blue) in Bcl-xL transfectants; type: cell-based, murine; settings: 24 h
Procedure: as §1

[5] = test system: TAMH cells over-expressing Bcl-xL WT; assay: Cytotoxicity (Alamar Blue) in Bcl-xL transfectants; type: cell-based, murine; settings: 24 h
Procedure: as §1

Bcl-xL(ΔC) A142L [6] = biological target: T1, Bcl-xL(ΔC) A142L (Homo sapiens, UniProt Q07817, A142L); assay: Fluorescence anisotropy binding
T1 construct: inferred from Ni-NTA purification and the pET22b(+) NdeI/XhoI cloning); made in house; host or cells: Escherichia coli BL21(DE3) carrying pUB520
Procedure: (§2) A pET22b (Novagen) vector coding for BCl-xL(ΔC), a mutant Bcl-xL protein without the COOH terminal region, was transformed into Escherichia coli BL21(DE3) cells that carried pUB520 (encoding human Arg tRNA) and grown to an A600 of 0.6. Protein expression was induced with 0.1 mM isopropyl β-D-thiogalactoside at 30° C. The cells were resuspended 1:5 (w/v) in PEB buffer (50 mM Tris, pH 8.0, 200 mM NaCl, 0.2 mM phenylmethylsulfonyl fluoride, 5 mM β-mercaptoethanol, 5 mM imidazole, and 1% (v/v) glycerol), and stirred for 20 min at 4° C. Cells were disrupted by pulse sonication, and the soluble fraction was loaded onto a nickel-nitrilotriacetic acid column (Qiagen) equilibrated with PEB buffer. The column was washed with 40 mM imidazole, eluted with 200 mM imidazole, and the protein fractions were pooled and dialyzed (50 mM Tris, pH 8.0, 200 mM NaCl, 0.2 mM phenylmethylsulfonyl fluoride) at 4° C. overnight. The dialyzed protein was concentrated to 10 mg/ml and fractionated on a Superdex 75 gel filtration column (Amersham Biosciences). The fractions containing Bcl-xL(ΔC) protein were pooled, exchanged into low-salt buffer (same as for previous dialysis buffer, except 50 mM NaCI), and loaded onto a MonoQ anion exchange column (Amersham Biosciences). Protein was eluted from the column with increasing NaCl gradient, pooled and concentrated.
(§3) All reagents were prepared in 0.2 μm-filtered PBS with fresh 1 mM DTT. […] Slit widths were set at 10 nm for both excitation and emission.

Bcl-xL(ΔC) E92L [7] = biological target: T2, Bcl-xL(ΔC) E92L (Homo sapiens, UniProt Q07817, E92L); assay: Fluorescence anisotropy binding; settings: AA1 200 nM or FITC-labeled BH3 peptide 25 nM; read-out: Dissociation Constant KD
T2 construct: inferred from Ni-NTA purification and the pET22b(+) NdeI/XhoI cloning); made in house; host or cells: Escherichia coli BL21(DE3) carrying pUB520
Procedure: as §2, §3

Bcl-xL(ΔC) F146L [8] = biological target: T3, Bcl-xL(ΔC) F146L (Homo sapiens, UniProt Q07817, F146L); assay: Fluorescence anisotropy binding
T3 construct: inferred from Ni-NTA purification and the pET22b(+) NdeI/XhoI cloning); made in house; host or cells: Escherichia coli BL21(DE3) carrying pUB520
Procedure: as §2, §3

Bcl-xL(ΔC) F97W [9] = biological target: T4, Bcl-xL(ΔC) F97W (Homo sapiens, UniProt Q07817, F97W); assay: Fluorescence anisotropy binding
T4 construct: inferred from Ni-NTA purification and the pET22b(+) NdeI/XhoI cloning); made in house; host or cells: Escherichia coli BL21(DE3) carrying pUB520
Procedure: as §2, §3

Bcl-xL(ΔC) WT [10] = biological target: T5, Bcl-xL(ΔC) WT (Homo sapiens, UniProt Q07817); assay: Fluorescence anisotropy binding; settings: AA1 200 nM or FITC-labeled BH3 peptide 25 nM; read-out: Dissociation Constant KD
T5 construct: inferred from Ni-NTA purification and the pET22b(+) NdeI/XhoI cloning); made in house; host or cells: Escherichia coli BL21(DE3) carrying pUB520
Procedure: as §2, §3

Bcl-xL(ΔC) E92L [11] = biological target: T2, Bcl-xL(ΔC) E92L; assay: Pore-forming activity, calcein release from liposomes; type: biochemical; settings: Bcl-xL(ΔC) 500 nM; read-out: Pore Inhibition IC50
Procedure: (§4) Large unilamellar vesicles composed of 60% dioleoylphophatidylcholine and 40% dioleoylphosphatidylglycerol were prepared by the extrusion method of Mayer et al., supra. Lipid stocks, in chloroform, were mixed and dried under a stream of nitrogen gas. The lipid was resuspended by vortexing for 30 min in a solution of 40 mM calcein (Molecular Probes), 25 mM KCl, and 10 mM KOAc, pH 5.0. After 10 freeze-thaw cycles, the lipid suspension was extruded through two 0.1 μm pore diameter Nucleopore filters. Non-entrapped dye was removed by passage over a Sephadex G10 column (Amersham Biosciences). Lipid concentration was measured using the ammonium ferrothiocyanate method (Stewart, Anal. Biochem. 104:10-14, 1980).
(§5) For pore assays, recombinant truncated Bcl-2 family protein or mutant protein (Bcl-xL(ΔC)) (500 nM) was added to large unilamellar vesicles (60 μM lipid concentration) in 100 mM KCl, 10 mM KOAc, pH 5.0, and fluorescence measured (490 nm excitation, 520 nm emission) with a Fluoromax-3 spectrophotometer. Peptides of the BH3 domain were incubated with the BCl-xL(ΔC) 5 min prior to mixing with liposomes. AA1 was added to liposomes 1 min before adding the Bcl-xL(ΔC) protein. Samples for kinetic assays were analyzed in a thermostatted cuvette at 37° C. with constant stirring. Dose responses were measured in black quartz microplates (Hellma) at room temperature. Calcein release was expressed as percentage of maximum release with detergent lysis (0.1% Triton X-100).

Bcl-xL(ΔC) F146L [12] = biological target: T3, Bcl-xL(ΔC) F146L; assay: as above; type: biochemical; settings: Bcl-xL(ΔC) 500 nM; read-out: Pore Inhibition IC50
Procedure: as §4, §5

Bcl-xL(ΔC) F97W [13] = biological target: T4, Bcl-xL(ΔC) F97W; assay: as above; type: biochemical; settings: Bcl-xL(ΔC) 500 nM; read-out: Pore Inhibition IC50
Procedure: as §4, §5

Bcl-xL(ΔC) WT [14] = biological target: T5, Bcl-xL(ΔC) WT; assay: as above; type: biochemical
Procedure: as §4, §5

Bcl-xL(ΔC) A142L [15] = biological target: T1, Bcl-xL(ΔC) A142L; assay: as above; type: biochemical; settings: Bcl-xL(ΔC) 500 nM; read-out: Pore Inhibition IC50
Procedure: as §4
as §5, with “Peptides of the BH3 domain were incubated with the BCl-xL(ΔC) 5 min prior to mixing with liposomes. AA1 was added to liposomes 1 min before adding the Bcl-xL(ΔC) protein.” left out, “X-100). […]” for “X-100).”

[16] = AA1 200 nM or FITC-labeled BH3 peptide 25 nM, read-out: Dissociation Constant KD

T3 sequence (Q07817 1-211 F146L limits assumed): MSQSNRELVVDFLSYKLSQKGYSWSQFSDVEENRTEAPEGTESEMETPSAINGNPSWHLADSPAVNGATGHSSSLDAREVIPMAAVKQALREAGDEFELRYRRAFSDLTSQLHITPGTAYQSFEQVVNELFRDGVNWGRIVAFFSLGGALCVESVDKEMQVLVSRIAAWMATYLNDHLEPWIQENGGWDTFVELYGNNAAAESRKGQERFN
T5 sequence (Q07817 1-211 limits assumed, stated change not applied): as the sequence (Q07817 1-211 F146L limits assumed) above, with L146F counted along it
T4 sequence (Q07817 1-211 F97W limits assumed): as the sequence (Q07817 1-211 F146L limits assumed) above, with F97W, L146F counted along it
T1 sequence (Q07817 1-211 A142L limits assumed): as the sequence (Q07817 1-211 F146L limits assumed) above, with A142L, L146F counted along it
T2 sequence (Q07817 1-211 E92L limits assumed): as the sequence (Q07817 1-211 F146L limits assumed) above, with E92L, L146F counted along it

`CCCCCC[C@H]1C(=O)O[C@H](C)[C@H](NC(=O)c2cccc(NC=O)c2O)C(=O)O[C@@H](C)[C@@H]1OC(=O)CC(C)C` [antimycin A1] was tested. Which “sensitivity to antimycin A1” value [1] did it give?
Its value is “completely insensitive”.

And the “Cytotoxicity LD50” value ([1]; 24 h)?
The value was greater than 10 µM.

And the “Cytotoxicity LD50” value [2]?
Its value is 1.72 ± 0.3 µM.

What about the “Cytotoxicity LD50” value ([2]; listed as AA1) of the same molecule?
The value was 1.72 ± 0.34^2 μM.

And the “sensitivity to antimycin A1” value [3]?
The value was “completely insensitive”.

What about the “Cytotoxicity LD50” value ([3]; 24 h) of the same molecule?
Its value is greater than 10 µM.

What about the “Cytotoxicity LD50” value [4] of the same molecule?
Its value is 5.12 ± 0.9 µM.

And the “Cytotoxicity LD50” value ([4]; listed as AA1)?
Its value is 5.12 ± 0.94^2 μM.

What about the “Cytotoxicity LD50” value [5] of the same molecule?
Its value is 0.47 µM.

And the “Cytotoxicity LD50” value ([5]; listed as AA1)?
Its value is 0.47 ± 0.07^ μM.

What about the “increase in Kd compared with Bcl-xL wt(ΔC)” value (Bcl-xL(ΔC) A142L [6]) of the same molecule?
The value was 20 fold.

What about the Kd (Bcl-xL(ΔC) A142L [6]; [16]) of the same molecule?
Its Kd is 41.8 ± 21.4 µM.

What about the Kd (Bcl-xL(ΔC) E92L [7]) of the same molecule?
Its Kd is 5.06 ± 0.86 µM.

And the decrease in affinity (Bcl-xL(ΔC) F146L [8])?
Its decrease in affinity is roughly 10 fold.

And the Kd (Bcl-xL(ΔC) F146L [8]; [16])?
Its Kd is 20 ± 9.4 µM.

What about the “increase in Kd compared with Bcl-xL wt(ΔC)” value (Bcl-xL(ΔC) F97W [9]) of the same molecule?
The value was 8 fold.

What about the Kd (Bcl-xL(ΔC) F97W [9]; [16]) of the same molecule?
The Kd was 17.6 ± 5.2 µM.

And the Kd (Bcl-xL(ΔC) WT [10])?
The Kd was 2360 ± 1410 nM.

What about the IC50 (Bcl-xL(ΔC) E92L [11]) of the same molecule?
Its IC50 is 2470 ± 300 nM.

What about the IC50 (Bcl-xL(ΔC) F146L [12]) of the same molecule?
The IC50 was 3.6 ± 0.4 µM.

What about the IC50 (Bcl-xL(ΔC) F97W [13]) of the same molecule?
Its IC50 is 3.45 ± 0.34 µM.

And the “effect on Bcl-xL pore-forming activity” value (Bcl-xL(ΔC) WT [14])?
The value was “inhibited”.

And the IC50 (Bcl-xL(ΔC) WT [14]; Bcl-xL(ΔC) 500 nM, read-out: Pore Inhibition IC50)?
Its IC50 is 2030 ± 240 nM.

And the IC50 (Bcl-xL(ΔC) A142L [15])?
The IC50 was 4.1 ± 1.24 µM.
